Data taken from PMC4018993, “Use of “one-pot, mix-and-read” peptide-MHC class I tetramers and predictive algorithms to improve detection of cytotoxic T lymphocyte responses in cattle” (Veterinary Research, 2014).
Entries after “also recorded” stand apart in the source; their conditions may differ.

How the values were obtained:
BoLA-3*00101 = system: BoLA-3*00101; design: method as in PMID 18070892; details: ref [29]; cited from earlier work
BoLA-T7 (bovine) = test: not stated; preliminary data, not shown
CTL line Bx196 = test: p-MHC class I tetramer staining of CTL line Bx196; type: cell-based, bovine; details: cell line printed as 196; Tp2_96-104-BoLA-T2c tetramers
Experimental: (§1) UFC510024] at 14 000 g for 10 min.

CTL line BB007 [1] = test: p-MHC class I tetramer staining of CTL line BB007; type: cell-based, bovine; details: peptide as BoLA-6*01301 tetramer, PE-streptavidin; Figure 1
Experimental: as §1

BoLA-6*01301 = system: BoLA-6*01301
Experimental: Peptides were purchased from Mimotopes (Victoria, Australia) at a purity of 95% and re-suspended in water containing 0.1% acetic acid at a final concentration of 10 mM and diluted to working concentrations in sterile water. The sequences of T. parva peptide epitopes are as in Table 1.

BoLA-T5 = test: peptide-BoLA binding assay, BoLA-T5; design: species or system bovine; details: peptide-BoLA binding assays
Experimental: (§2) Folding of p-MHC class I complexes was assessed with an ELISA assay as described in [35]. […] After an incubation of 48 h at 18 °C, the complexes were transferred to another 96-well plate pre-coated with streptavidin (Nunc, cat# 436014), which captures biotinylated HC, and incubated for three hours at 4 °C. After washing, the W6/32 monoclonal antibody (Santa Cruz Biotechnology, Texas, USA, cat # SC-32235), which binds to a monomorphic epitope on β2m but only when it is incorporated in p-MHC class I complexes, was added for 1 h at 4 °C. After washing, anti-mouse IgG coupled to peroxidase (Sigma Aldrich, cat # A9917-1ML) was added to the plate followed by incubation for an hour at room temperature and further rounds of washes. Colorimetric change was performed by adding the TMB Plus2 “Ready to Use” Substrate (Kem En Tec, cat # 4395H) for 10 min at room temperature. The reaction was stopped by adding H2SO4 (0.3 M) and optical density was measured using an ELISA plate reader at 450 nm. The concentration of MHC class I and β2m molecules used in such assays is normally in the nanomolar range [35]. […] We are in the process of generating a β2m without the extra start methionine, which should allow use of recombinant molecules in the nanomolar range.

BoLA-1*02301 = test: p-MHC monomer binding assay, BoLA-1*02301; design: species or system bovine; details: data not shown
Experimental: as §2

CTL line BV50 = test: p-MHC class I tetramer staining of CTL line BV50; type: cell-based, bovine
Experimental: as §1

CTL line Bx63 = test: p-MHC class I tetramer staining of CTL line Bx63; type: cell-based, bovine; details: cell line Bx63; Tp8_379-387-BoLA-3*00101 tetramers
Experimental: as §1

CTL line BB007 [2] = test: multiple staining of tetramer-positive cells (CD8, FasL, perforin); type: cell-based, bovine
Experimental: Flow cytometry data were acquired on a BD FACSCanto™ II instrument (BD Biosciences). Compensation controls for PE, PerCP, FITC and APC were included for automatic compensation by the FACS DIVA software. 10 μL BoLA class I tetramer was used for staining cells (between 2 × 10^5 and 5 × 10^5 cells per sample). CD8 staining was done by incubating cells with ILRI monoclonal antibody ILA51 (IgG1) and using rat anti-mouse IgG1-PerCP (BD; cat # 340272) as the secondary antibody. Staining for perforin was done using anti-human-perforin-FITC (BD Pharmingen, San diego, CA, USA, cat# 556577) and staining for Fas-ligand was done using primary rabbit anti-Fas ligand (Santa Cruz biotechnology, cat no. SC-957) and secondary FITC-coupled anti-rabbit IgG antibody (Sigma, MO, USA, cat# F-0382). All staining were conducted in PBS-0.5% BSA except for intracellular staining with anti-perforin where cells were incubated and stained in PBS-0.1%Saponin-10% FBS. Negative control for intracellular staining was done with anti-dansyl-FITC antibody (BD Pharmingen, San diego, CA, USA, cat# 556577). The data were analyzed using the FlowJo software version 7.6.5.

PBMC of BoLA-A18 cattle = test: ex vivo tetramer staining of PBMC from ITM-vaccinated cattle; details: days 15 to 17 post ITM vaccination, T. parva Muguga 3308; Tp1_214-224-BoLA-6*01301 tetramers; three BoLA-A18 cattle
Experimental: Three cattle of BoLA-A18 haplotype (typed with PCR primers [forward] 5’-[…]-3’ and [reverse] 5’-[…]-3’ specific for BoLA-6*01301) were vaccinated by ITM [24] using the T. parva strain Muguga 3308. Whole blood was collected from these cattle at the day of vaccination (day 0) and every two days till appearance of tetramer positive cells. PBMC were purified on Ficoll paque density gradients at 2500 rpm for 25 min and 5 × 10^5 PBMC were stained with the Tp1_214-224-BoLA-6*01301 tetramer as described in the flow cytometry procedure. This animal experiment was approved by the ILRI IACUC committee [# 2012.10].

## TGASIQTTL [Tp4 CTL epitope, control peptide for BoLA-3*00101]
BoLA-3*00101
  binding to BoLA-3*00101 (in words): known binder to BoLA-3*00101

## Tp7_(207-214) peptide
BoLA-T7 (bovine)
  Kd: 142 nM

## FAQSLVCVL [Tp2_96-104]
CTL line Bx196
  tetramer positive cells: about 65%
CTL line BB007 [1]
  tetramer staining of CTL (in words): low level smear staining
BoLA-6*01301
  binding to BoLA-6*01301 (in words): does not bind BoLA-6*01301

## SKADVIAKY [Tp5_87-95]
BoLA-T5
  peptide-BoLA binding, BoLA-T5 (in words): does indeed bind both BoLA molecules
BoLA-1*02301
  p-MHC monomer binding to BoLA-1*02301 (in words): confirmed by p-MHC monomer binding assays; also recorded: does indeed bind both BoLA molecules
CTL line BV50; CD8-gated, Figure 7C
  co-staining by Tp5_87-95-BoLA-1*02301 (PE) and Tp5_87-95-BoLA-T5 (APC) tetramers (in words): both tetramers bind the same population of CTL; also recorded: a single TCR can recognize the Tp5_87-95 epitope presented by either BoLA molecule
CTL line BV50; peptide as Tp5_87-95-BoLA-1*02301 tetramer, BV50 and 495 lines tested
  tetramer staining of BV50 (in words): The only CTL line stained by this tetramer was BV50
CTL line BV50; peptide as Tp5_87-95-BoLA-T5 tetramer, Figure 7B
  tetramer staining of BV50 (in words): also stained by Tp5_87-95-BoLA-T5 p-MHC class I tetramers

## Tp7_(206-214) peptide
BoLA-T7 (bovine)
  Kd: 252 nM

## YMYRVWSPL
CTL line BB007 [1]
  tetramer staining of CTL (in words): very low staining
BoLA-6*01301
  binding to BoLA-6*01301 (in words): binds to BoLA-6*01301
BoLA-6*01301; control peptide from a bank of random nonamer peptides, binding assay as described in [34]
  affinity for BoLA-6*01301: ≥ 1 nM

## CGAELNHFL [Tp8_379-387]
CTL line Bx63
  tetramer positive cells: about 3%

## VGYPKVKEEML [Tp1_214-224]
CTL line BB007 [2]; Figure 4D
  CD8 and perforin, triple staining: tetramer-positive cells are also positive for CD8 and perforin
CTL line BB007 [2]; Tp1_214-224-BoLA-6*01301 tetramer, Figure 4A
  CD8 expression of Tp1 tetramer positive cells: all Tp1 positive cells in the cell line BB007 were CD8-positive
CTL line BB007 [2]; Tp1_214-224-BoLA-6*01301 tetramer, Figure 4B
  FasL expression of Tp1 tetramer positive cells: FasL-positive
CTL line BB007 [2]; Tp1_214-224-BoLA-6*01301 tetramer, Figure 4C
  perforin expression of Tp1 tetramer positive cells: perforin-positive
PBMC of BoLA-A18 cattle
  frequency of Tp1 tetramer positive cells in PBMC: about 1%
CTL line BB007 [1]
  tetramer staining of CTL (in words): staining of a clear distinct cell population
